We go through four compounds from the NIST ThermoML archive (doi:10.1016/j.fluid.2018.05.029).

± gives the expanded uncertainty stated by the source.

The conditions of this data set: Liquid; Resistive pulse heating.
On to `CN1CCN(C)CC1` [1,4-dimethylpiperazine], for which the Critical pressure is 3730 ± 120 kPa and the Critical temperature is reported as 606 ± 6 K.

On to `O=C1CCCCCN1` [1-aza-2-cycloheptanone], for which the Critical pressure turned out to be 4660 ± 140 kPa and the Critical temperature was 801 ± 8 K.

With `CC1CNCC(C)N1` (stereo not drawn) [2,6-dimethylpiperazine], the Critical pressure worked out at 3800 ± 120 kPa and the Critical temperature is on record as 646 ± 6 K.

`C[S+](C)[O-]` [dimethyl sulfoxide]: the Critical pressure is 5130 ± 160 kPa and the Critical temperature is 718 ± 7 K.
